From ChEMBL document CHEMBL5370683, “Peptide-to-Small Molecule: Discovery of Non-Covalent, Active-Site Inhibitors of β-Herpesvirus Proteases” (ACS Med Chem Lett, 2023)
Blank lines part the entries; values can stand above or below the molecule they belong to. Peptide text beside a SMILES is read from it.

How the values were obtained:
[1] = Inhibition of N-terminal 6 His-tagged HHV6 protease H5A mutant (2 to 230 residues) expressed in Escherichia coli BL21 cells using 5FAM-KPSILNASLTPETVKK as peptide substrate incubated for 3 hrs by fluorescence based analysis; design: species or system Human betaherpesvirus 6
[2] = Inhibition of amino terminal GST tagged HCMV protease H5A mutant (1 to 256 residues) expressed in Escherichia coli BL21 (DE3) cells using 5-carboxyfluorescein [FAM]-RGVVNASSRLAK as peptide substrate incubated for 3 hrs by fluorescence based analysis; design: species or system Human betaherpesvirus 5
[3] = Inhibition of amino terminal GST tagged HCMV protease W7A mutant (1 to 256 residues) expressed in Escherichia coli BL21 (DE3) cells using 5-carboxyfluorescein [FAM]-RGVVNASSRLAK as peptide substrate incubated for 3 hrs by fluorescence based analysis; design: species or system Human betaherpesvirus 5
[4] = Inhibition of N-terminal 6 His-tagged HHV6 protease W7A mutant (2 to 230 residues) expressed in Escherichia coli BL21 cells using 5FAM-KPSILNASLTPETVKK as peptide substrate incubated for 3 hrs by fluorescence based analysis; design: species or system Human betaherpesvirus 6
[5] = Cytotoxicity against HFF cells assessed as inhibition in cell viability incubated for 5 days by luminescence based analysis; type: toxicity; details: human, time 5 day
[6] = Inhibition of amino terminal GST tagged HCMV protease (1 to 256 residues) expressed in Escherichia coli BL21 (DE3) cells using 5-carboxyfluorescein [FAM]-RGVVNASSRLAK as peptide substrate incubated for 3 hrs by fluorescence based analysis; design: species or system Human betaherpesvirus 5
Human betaherpesvirus 5 [7] = assay: Inhibition of amino terminal GST tagged HCMV protease (1 to 256 residues) expressed in Escherichia coli BL21 (DE3) cells using 5-carboxyfluorescein [FAM]-RGVVNASSRLAK as peptide substrate at 99 uM incubated for 3 hrs by fluorescence based analysis relative to control
Human betaherpesvirus 5 [8] = assay: Antiviral activity against HCMV infected in HFF cells assessed as reduction in viral replication; type: functional, organism-based; details: Human betaherpesvirus 5, HFF
[9] = Inhibition of N-terminal 6 His-tagged HHV6 protease (2 to 230 residues) expressed in Escherichia coli BL21 cells using 5FAM-KPSILNASLTPETVKK as peptide substrate incubated for 3 hrs by fluorescence based analysis; design: species or system Human betaherpesvirus 6
[10] = Inhibition of amino terminal GST tagged HCMV protease T3A mutant (1 to 256 residues) expressed in Escherichia coli BL21 (DE3) cells using 5-carboxyfluorescein [FAM]-RGVVNASSRLAK as peptide substrate incubated for 3 hrs by fluorescence based analysis; design: species or system Human betaherpesvirus 5
[11] = Inhibition of N-terminal 6 His-tagged HHV6 protease T3A mutant (2 to 230 residues) expressed in Escherichia coli BL21 cells using 5FAM-KPSILNASLTPETVKK as peptide substrate incubated for 3 hrs by fluorescence based analysis; design: species or system Human betaherpesvirus 6
[12] = Inhibition of N-terminal 6 His-tagged HHV6 protease R9A mutant (2 to 230 residues) expressed in Escherichia coli BL21 cells using 5FAM-KPSILNASLTPETVKK as peptide substrate incubated for 3 hrs by fluorescence based analysis; design: species or system Human betaherpesvirus 6
[13] = Inhibition of amino terminal GST tagged HCMV protease R9A mutant (1 to 256 residues) expressed in Escherichia coli BL21 (DE3) cells using 5-carboxyfluorescein [FAM]-RGVVNASSRLAK as peptide substrate incubated for 3 hrs by fluorescence based analysis; design: species or system Human betaherpesvirus 5

SMILES: CC[C@H](C)[C@H](NC(=O)[C@H](Cc1ccccc1)NC(C)=O)C(=O)N[C@H](C(=O)NCC(=O)N[C@@H](C)C(=O)N[C@@H](Cc1ccc(O)cc1)C(=O)N[C@@H](Cc1c[nH]c2ccccc12)C(=O)N[C@H](C(=O)N[C@@H](CCCNC(=N)N)C(=O)N[C@@H](Cc1ccccc1)C(=O)N[C@@H](CC(C)C)C(=O)N1CCC[C@H]1C(=O)N[C@@H](CS)C(=O)NCC(N)=O)C(C)C)[C@@H](C)O (Ac-FITGAYWVRFLPCG-NH2)
- IC50 [1]: 0.086 µM
- IC50 [2]: 0.109 µM

SMILES: CC[C@H](C)[C@H](NC(=O)[C@H](Cc1ccccc1)NC(C)=O)C(=O)N[C@H](C(=O)NCC(=O)N[C@@H](Cc1c[nH]cn1)C(=O)N[C@@H](Cc1ccc(O)cc1)C(=O)N[C@@H](C)C(=O)N[C@H](C(=O)N[C@@H](CCCNC(=N)N)C(=O)N[C@@H](Cc1ccccc1)C(=O)N[C@@H](CC(C)C)C(=O)N1CCC[C@H]1C(=O)N[C@@H](CS)C(=O)NCC(N)=O)C(C)C)[C@@H](C)O (Ac-FITGHYAVRFLPCG-NH2)
- IC50 [3]: 0.811 µM
- IC50 [4]: 0.25 µM

SMILES: CC[C@H](C)[C@H](NC(=O)[C@H](Cc1ccccc1)NC(C)=O)C(=O)N[C@@H](C)C(=O)NCC(=O)N[C@@H](Cc1c[nH]cn1)C(=O)N[C@@H](Cc1ccc(O)cc1)C(=O)N[C@@H](Cc1c[nH]c2ccccc12)C(=O)N[C@H](C(=O)N[C@@H](CCCNC(=N)N)C(=O)N[C@@H](Cc1ccccc1)C(=O)N[C@@H](CC(C)C)C(=O)N1CCC[C@H]1C(=O)N[C@@H](CS)C(=O)NCC(N)=O)C(C)C (Ac-FIAGHYWVRFLPCG-NH2)
- IC50 [10]: 0.157 µM
- IC50 [11]: 0.1 µM

SMILES: CC[C@H](C)[C@H](NC(=O)[C@H](Cc1ccccc1)NC(C)=O)C(=O)N[C@H](C(=O)NCC(=O)N[C@@H](Cc1c[nH]cn1)C(=O)N[C@@H](Cc1ccc(O)cc1)C(=O)N[C@@H](Cc1c[nH]c2ccccc12)C(=O)N[C@H](C(=O)N[C@@H](C)C(=O)N[C@@H](Cc1ccccc1)C(=O)N[C@@H](CC(C)C)C(=O)N1CCC[C@H]1C(=O)N[C@@H](CS)C(=O)NCC(N)=O)C(C)C)[C@@H](C)O (Ac-FITGHYWVAFLPCG-NH2)
- IC50 [12]: < 0.076 µM
- IC50 [13]: 0.092 µM

Further lines, with some results ahead:

- IC50 [6]: > 99 µM
- EC50 (Human betaherpesvirus 5 [8]): 38 µM
- IC50 [9]: 18 µM
SMILES: CN1C(=O)N(c2cccn([C@@H](c3ccccc3)c3cn(C4CCCC4)nc3-c3ccccc3)c2=O)C[C@@H]1C(=O)Nc1ccc[nH]c1=O
- CC50 at 120 h [5]: 53 µM
- inhibition (Human betaherpesvirus 5 [7]): 32%

- IC50 [6]: 9.8 µM
- EC50 (Human betaherpesvirus 5 [8]): > 25 µM
- IC50 [9]: 11 µM
SMILES: CN1C(=O)N(c2cccn([C@@H](c3ccccc3)c3cn(C4CCCC4)nc3-c3ccccc3)c2=O)C[C@@H]1C(=O)NC12CCC(CC1)NC2=O
- CC50 at 120 h [5]: > 25 µM

- IC50 [6]: 13 µM
- IC50 [9]: 5 µM
SMILES: Cc1ccc(C(c2cn(C3CCCC3)nc2-c2ccccc2)n2cccc(N3C[C@H](C(=O)NC45CCC(CC4)NC5=O)N(C)C3=O)c2=O)cc1 (mixture of isomers)

- IC50 [6]: < 0.076 µM
- IC50 [9]: < 0.076 µM
SMILES: CC[C@H](C)[C@H](NC(=O)[C@H](Cc1ccccc1)NC(C)=O)C(=O)N[C@H](C(=O)NCC(=O)N[C@@H](Cc1c[nH]cn1)C(=O)N[C@@H](Cc1ccc(O)cc1)C(=O)N[C@@H](Cc1c[nH]c2ccccc12)C(=O)N[C@H](C(=O)N[C@@H](CCCNC(=N)N)C(=O)N[C@@H](Cc1ccccc1)C(=O)N[C@@H](CC(C)C)C(=O)N1CCC[C@H]1C(=O)N[C@@H](CS)C(=O)NCC(N)=O)C(C)C)[C@@H](C)O (Ac-FITGHYWVRFLPCG-NH2)

- IC50 [6]: 15 µM
- IC50 [9]: 27 µM
SMILES: Cc1cccc(C(c2cn(C3CCCC3)nc2-c2ccccc2)n2cccc(N3C[C@H](C(=O)NC45CCC(CC4)NC5=O)N(C)C3=O)c2=O)c1 (mixture of isomers)
